According to US4885305A, “Nasal compositions” (Yamanouchi Pharmaceutical Co., Ltd., priority 1984, dated 1989):
Like-named read-outs stand apart in the source and are kept apart here.

Assay: Bioavailability trial of nicardipine in rhesus monkeys: nasal composition compared with oral route (gastric tube), plasma levels by gas chromatography
Assay type: in vivo
Conditions: rhesus monkey; for AUC(0-t) at 24 h: read-out: AUC 0-24 h (area under the curve); for Tmax: read-out: T max (time to obtain C max)
Procedure: This activity has been confirmed by standard bioavailability trials wherein nasal pharmaceutical compositions of the invention are compared with other conventional compositions and blood levels of drug are measured. In one trial, a nasal composition of the invention comprising 4 mg nicardipine hydrochloride per ml of distilled water has been administered nasally to rhesus monkeys (weight from 7 to 12 kg). A dose of 0.5 ml of this composition is sprayed each morning into each nostril. Blood samples are taken up 15 minutes, 30 minutes, 1 hour, 2 hours, 3 hours, 4 hours, 6 hours, 8 hours and 24 hours after administration and treated with lithium heparin. The treated blood samples are centrifuged and the concentration of nicardipine in the plasma is determined in conventional manner by converting the nicardipine into a corresponding pyridine derivative and determination by gas chromatographic techniques. The same animals are also treated in another similar trial with orally administered nicardipine at a dose of 20 mg by mean of a gastric tube.

[1] = oral route (gastric tube), 20 mg

- AUC(0-t) at 24 h (nasal route, 4 mg): 192 ± 36.3 ng·h/mL
- Tmax (nasal route, 4 mg): 0.4 ± 0.1 h
- AUC(0-t) at 24 h [1]: 457 ± 86.6 ng·h/mL
- Tmax [1]: 2.1 ± 0.5 h
Compound: COC(=O)C1=C(C)NC(C)=C(C(=O)OCCN(C)Cc2ccccc2)C1c1cccc([N+](=O)[O-])c1 (stereo not shown) [nicardipine]
